Experimental data published in patent US20050026850A1, “Combination of dehydroepiandrosterone or dehydroepiandrosterone-sulfate with a tyrosine kinase inhibitor, delta opioid receptor antagonist, neurokinin receptor antagonist, or VCAM inhibitor for treatment of asthma or chronic obstructive pulmonary disease” (priority 2003, published 2005).
pIC50: −log10 of the molar value. Values joined by “and” are separate entries in the source; they are usually repeats but may differ in a detail not shown here. Equal entries are not always repeated.

What was measured:
[1] = test system: Intracellular adenosine; experiment: In vivo effect on adenosine levels in various rat tissues
[2] = test system: HT-29 SF cells; experiment: DHEA effect on cell cycle (flow cytometry); type: cell-based, human
Description: Cells were plated at 10^5/60-mm dish in duplicate. […] Cultures were trypsinized following 0, 24, 48, or 74 hours and fixed and stained using a modification of a procedure of Bauer et al., Cancer Res. 46, 3173-3178 (1986). Briefly, cells were collected by centrifugation and resuspended in cold phosphate-buffered saline. Cells were fixed in 70% ethanol, washed, and resuspended in phosphate-buffered saline.
After 24, 48, and 72 hours, cells were harvested, fixed in ethanol, and stained with propidium iodide, and the DNA content/cell was determined by flow cytometric analysis. The percentage of cells in G1, S, and G2M phases was calculated using the Cellfit cell cycle analysis program. S phase is marked by a quadrangle for clarity. Representative histograms from duplicate determinations are shown. The experiment was repeated three times.

[3] = test system: HT-29 SF cells; experiment: DHEA effect on cell growth; type: cell-based, human
[4] = Solid-state stability with and without lactose at 50° C. (DHEA formation by HPLC); type: physicochemical; conditions: for Percent DHEA formed from DHEA-S Dihydrate / DHEA % formed from Anhydrous DHEA-S: Control, neat, sealed, 25° C.
Text: These conditions were used to stress the formulation in order to predict its long-term stability results. […] The primary degradant is DHEA. […] The materials on accelerated storage become more cohesive with time as evidenced by clumping during sample weighing for chemical analysis. […] This is a considerable disadvantage since lactose is the most commonly used inhalation excipient for dry powder formulations. Continuing with the virtually anhydrous form would mean limiting formulations to neat powder or undertaking more comprehensive safety studies to use a novel excipient.

[5] = test system: NK1; conditions: printed under the compound name in the table, no method or source; cited from earlier work
[6] = test system: rat peritoneal mast cells; experiment: Compound 48/80 histamine release from rat peritoneal mast cells; type: cell-based; conditions: for % Inhibition of Histamine Release: DHEA-S 0; for effect on compound 48/80 induced mast cell degranulation: antagonist alone, 1-100 nM
[7] = Solubility of DHEA-S; type: physicochemical; conditions: 15° C., 20 mM Na+, from Ksp by quadratic formula
Text: Inhalation of pure water can produce a cough stimulus. […] The temperature effect is weaker at high NaCl concentrations.

[8] = HPLC analysis of drug degradation during jet milling micronization; type: physicochemical; conditions: single-pass and double-pass jet milled, HPLC peak area versus unmilled standard
Description: Two vials (A; single-pass; 150 mg) and (B double-pass; 600 mg) of the micronized drug were available for determining drug degradation during jet milling micronization. […] The chromatographic peak area for the HPLC assay of the unmilled drug standard solution (10 mg/ml) gave a value of 23,427. […] The chromatographic peak areas for vials A and B were 11,979 and 11,677, respectively.

[9] = Nebulizer studies; conditions: 0.12% NaCl (20 mM Cl−), Pari LC Plus nebulizer, 5 mL
Text: The collection apparatus, nebulizer, and imp actor are rinsed with mobile phase and assayed by HPLC.

[10] = Short-term solution stability of DHEA-S formulation; type: physicochemical; conditions: 7.5 mg/mL of DHEA-S in 0.12% NaCl, RT
Description: Aliquots of this solution are filled into clear glass vials and stored at RT (24-26° C.) and at 40° C. The samples are checked daily for DHEA-S content, DHEA content, and appearance. For each time point, duplicate samples are withdrawn and diluted from each vial. […] The study is stopped on day three. […] The solution should easily be stable for the day of reconstitution in a clinical trial. The following section describes the aerosol properties of this formulation.

## C[C@]12CCC(=O)C=C1CC[C@@H]1[C@@H]2CC[C@@]2(C)[C@H]1CC[C@]2(C)O [Methyltestosterone, methyltestosterone]
[1]; rat, in vivo
  Intracellular adenosine, Brain: 0.42 ± 0.06 and 0.32 ± 0.03
  Intracellular adenosine, Heart: 8.3 ± 1.0 and 6.0 ± 0.4
  effect on tissue adenosine: multi-organ depletion of adenosine

## C[C@]12CC[C@H](O)CC1=CC[C@@H]1[C@@H]2CC[C@]2(C)C(=O)CC[C@@H]12 [DHEA, 3β-hydroxyandrost-5-en-17-one]
[2]; 25-200 μM, 24-72 hours
  cell cycle effect (summary): G1 block in HT-29 SF cells in a time-and dose-dependent manner
[2]; 25 or 50 μM, 72 hours
  cell cycle distribution: the percentage of cells in G1 phase was increased after 72 hours
[3]; 12.5 μM
  exposure time after which cell number was reduced compared to controls: 72 h
[3]; 25 μM
  exposure time after which cell number was reduced compared to controls: 48 h
[3]; 50 μM
  exposure time after which cell number was reduced compared to controls: 48 h
[3]; 200 μM
  exposure time after which cell number was reduced compared to controls: 24 h
[1]; rat, in vivo
  effect on tissue adenosine: multi-organ depletion of adenosine

## CC12CCC3C(CC=C4CC(OS(=O)(=O)[O-])CCC43C)C1CCC2=O.[Na+] (centres unmarked) [DHEA-S Dihydrate]
[4]; 1 week
  Percent DHEA formed from DHEA-S Dihydrate at 50° C.: 0.216%
[4]; 3 weeks
  Percent DHEA formed from DHEA-S Dihydrate at 50° C.: 0.317%
[4]; 4 weeks
  Percent DHEA formed from DHEA-S Dihydrate at 50° C.: 0.374%
  Percent DHEA formed from DHEA-S Dihydrate: 0.218%
[4]; Time (Weeks), initial value
  Percent DHEA formed from DHEA-S Dihydrate: 0.213%

## C[C@]12CC[C@H](OS(=O)(=O)[O-])CC1=CC[C@@H]1[C@@H]2CC[C@]2(C)C(=O)CC[C@@H]12.[Na+] [Anhydrous DHEA-S]
[4]; 1 week
  DHEA % formed from Anhydrous DHEA-S at 50° C.: 9.817%
  DHEA % formed from Anhydrous DHEA-S: 2.694%
[4]; 2 weeks
  DHEA % formed from Anhydrous DHEA-S at 50° C.: 14.954%
  DHEA % formed from Anhydrous DHEA-S: 2.370%
[4]; 4 weeks
  DHEA % formed from Anhydrous DHEA-S at 50° C.: 20.171%
  DHEA % formed from Anhydrous DHEA-S: 2.666%
[4]; Time (Weeks), initial value
  DHEA % formed from Anhydrous DHEA-S: 2.774%

## CC(C)Oc1cccc(CC(=O)N2CCC[C@](CC[N+]34CCC(c5ccccc5)(CC3)CC4)(c3ccc(Cl)c(Cl)c3)C2)c1 [SR 140333]
[5]
  pIC50: 7.30
[6]; antagonist 1 nM
  % Inhibition of Histamine Release: 1%
[6]; antagonist 30 nM
  % Inhibition of Histamine Release: −8%
[6]; antagonist 100 nM
  % Inhibition of Histamine Release: −5%
[6]
  effect on compound 48/80 induced mast cell degranulation: minimal effect (if any)

## C=CCN1CC[C@]23c4c5ccc(O)c4O[C@H]2C(=O)CC[C@@]3(O)[C@H]1C5 [Naloxone, naloxone]
[6]; antagonist 1 nM
  % Inhibition of Histamine Release: −1%
[6]; antagonist 10 nM
  % Inhibition of Histamine Release: −1%
[6]; antagonist 100 nM
  % Inhibition of Histamine Release: −2%
[6]
  effect on compound 48/80 induced mast cell degranulation: minimal effect (if any)

## C[C@]12CC[C@H](OS(=O)(=O)[O-])CC1=CC[C@@H]1[C@@H]2CC[C@]2(C)C(=O)CC[C@@H]12.[Na+] [DHEA-S, sodium dehydroepiandrostenone sulfate]
[7]
  calculated DHEA-S solution concentration: 27.5 mM and 10.7 mg/mL
[8]
  drug degradation during jet milling micronization: no detectable degradation of the drug during the jet milling micronization process
[9]
  highest solution concentration that will not precipitate during nebulization: approximately 7.5 mg/mL
[10]
  stability of nebulizer formulation: stable for at least one day at RT

## Nc1nc(=O)c2c([nH]1)NCC(CNc1ccc(C(=O)N[C@@H](CCC(=O)O)C(=O)O)cc1)N2C=O (mixture of isomers) [Folinic Acid, Folinic acid]
[1]; Fischer 344 rats, once daily 14 days, DHEA 300 mg/kg, methyltestosterone 120 mg/kg, folinic acid 50 mg/kg i.p., mean ± SEM, control 0.5 ± 0.04
  Intracellular adenosine, Brain: 0.72 ± 0.09 nmols/mg protein
[1]; rats, folinic acid 50 mg/kg i.p. 14 days
  effect of folinic acid administered alone on adenosine levels: increase in adenosine levels for all organs studied
[1]; rats, folinic acid 50 mg/kg i.p. with DHEA or methyltestosterone
  effect of coadministration of folinic acid on steroid-mediated adenosine depletion: completely abrogated steroid-mediated adenosine depletion
